ED50 data for 26 compounds are collected here from patent publication US4382030A, “2-Acylaminomethyl-1,4-benzodiazepine derivatives and their salts, pharmaceutical compositions thereof and process for their preparation” (Kali-Chemie Pharma GmbH, priority 1979, dated 1983).

By ED50 is commonly meant the dose that gives a 50% effect, or the effect in half of the subjects. High values mean a need for a large dose, low ones an effect at a small dose.

The subject of test [1] is rats (secondary arthritis pain, mycobacterium smegmae). In words: Arthritis Pain Test in Rats. The test is classed as in vivo. Conditions: po, rat, p.o., 3 hours after administration, protection in 50% of treated animals. The protocol: (§1) This analgesic activity has been evaluated in two pharmacological standard methods, the tail flick test in mice and the arthritis pain test in rats.
2. Arthritis Pain Test in Rats.
Male rats having a weight of from 160 to 180 g are anesthetized by small i.p. injection of 20 mg/kg of sodium pentobarbital and 0.1 ml of a suspension of mycobacterium smegmae (SI 043) in liquid paraffin (0.6 mg mycobacterium/0.1 ml of oil) are injected intracutaneously into the left rear paw. Fourteen days later when a marked secondary arthritis has developed in particular in the right rear paw, the effect of the test compound is evaluated. A control-reading is taken 30 minutes prior to administration of the test compound by bending the foot joint of the right rear paw three times and counting the number of squeakings. […] Three hours after oral administration of the test compound the bending of the joint is repeated. Animals which squeak only once or not at all are considered to be protected against pain. Between about 9 and 20 rats are used per dose and the ED50 (95% reliability) is determined according to the method of Litchfield and Wilcoxon (1949). The dose which provides protection in 50% of the treated animals is taken as ED50.

For test [2], the system named is mice (tail flick, heat beam pain reaction). The test is described as follows: Tail flick Test in Mice. The test is classed as in vivo. The settings on record: sc, 0.5 h; mouse, s.c.; 30 minutes after administration; >75% increase of reaction time in 50% of animals. As for the experimental part: as §1
3. Tail flick Test in Mice.
This test is carried out according to the method described by D'Amour and Smith (1941), yet fed male and female mice having a body weight of 16 to 25 g are used instead of rats. Thirty minutes prior to treatment with the test compound, each mouse is placed separately in a cylindrical container in such a manner that it cannot turn itself or move forward. Its tail is positioned in a narrow groove projecting out of the container. A certain point of the tail of each animal (about 35 mm beyond the root of the tail) is subjected to the heat beam of a lamp of known strength and temperature which is positioned directly under the tail. The number of seconds which pass before the mouse moves its tail out of the light beam is determined twice, once 30 minutes and once 15 minutes prior to subcutaneous administration of the test compound (10 mg/kg). Mice which show a reaction time differing more than 25% are eliminated from the test. The reaction time is again determined 15 minutes and 30 minutes after the treatment and an increase of the reaction period of more than 75% of the average values prior to treatment in the same animal is considered as showing an analgesic effect. The ED50 (95% reliability) of each test compound 30 minutes after administration is evaluated according to the method of Litchfield and Wilcoxon (1949). The dose which increases the reaction time as compared to the reaction time prior to treatment for more than 75% in 50% of the animals is considered as ED50.
In general terms: In hot-plate and tail-flick tests a longer latency is read as antinociception.

SMILES strings stand for the structures. Where only a bound is given, the exact number is not on record here.

`CN1c2ccccc2C(c2ccccc2)=NCC1CNC(=O)c1ccoc1` (stereo not shown) [Compound 22, 1-methyl-2-[(furane-3-carbonyl)-aminomethyl]-5-phenyl-2,3-dihydro-1,4-benzodiazepine]: the 50% effective dose (ED50) in test [1] amounted to 14 mg/kg; in test [2], 0.44 mg/kg.
Turning to `COc1ccc2c(c1)N(C)C(CNC(=O)c1sccc1C)CN=C2c1ccccc1` (stereo not shown) [Compound 23, 8-methoxy-1-methyl-2-[(3-methylthiophene-2-carbonyl)-aminomethyl]-5-phenyl-1H-2,3-dihydro-1,4-benzodiazepine], the ED50 in test [1] was found to be 25 mg/kg; in test [2], 7.2 mg/kg.
For `CN1c2cc3c(cc2C(c2ccccc2)=NCC1CNC(=O)c1cccs1)OCO3` (stereo not shown) [Compound 24, 7,8-methylenedioxy-1-methyl-2-[(thiophene-2-carbonyl)-aminomethyl]-5-phenyl-1H-2,3-dihydro-1,4-benzodiazepine], the ED50 in test [1] turned out to be 10 mg/kg; in test [2] it was 3.8 mg/kg.
For the compound `CN1c2cc3c(cc2C(c2ccccc2)=NCC1CNC(=O)c1ccco1)OCO3` (stereo not shown) [Compound 25], the values for the ED50 in test [1] and in test [2] were under 32 mg/kg and under 5.6 mg/kg, respectively.
For `CN1c2cc3c(cc2C(c2ccccc2)=NCC1CNC(=O)c1ccoc1)OCO3` (stereo not shown) [Compound 26, 7,8-methylenedioxy-1-methyl-2-[(furane-3-carbonyl)-aminomethyl]-5-phenyl-1H-2,3-dihydro-1,4-benzodiazepine] the same measures were under 5.6 mg/kg and 2 mg/kg.
For `COc1ccc2c(c1)N(C)C(CNC(=O)c1ccc(Br)s1)CN=C2c1ccccc1` (stereo not shown) [Compound 27, 8-methoxy-1-methyl-2-[(5-bromothiophene-2-carbonyl)-aminomethyl]-5-phenyl-1H-2,3-dihydro-1,4-benzodiazepine] the same measures were under 32 mg/kg and over 5.6 mg/kg.
The matching figures for `O=C(NCC1CN=C(c2ccccc2)c2ccccc2N1)c1cccs1` (stereo not shown) [Compound 28, 2-[(thiophene-2-carbonyl)-aminomethyl]-5-phenyl-1H-2,3-dihydro-1,4-benzodiazepine]: over 32 mg/kg and 4.2 mg/kg.
Turning to `COc1ccc2c(c1)N(C)C(CNC(=O)c1cccnc1)CN=C2c1ccccc1` (stereo not shown) [Compound 29, 8-methoxy-1-methyl-2-nicotinoylaminomethyl-5-phenyl-1H-2,3-dihydro-1,4-benzodiazepine], the median effective dose (ED50) in test [1] was 30 mg/kg; in test [2] it was 4 mg/kg.
Turning to `COc1ccc2c(c1)N(C)C(CNC(=O)c1ccccn1)CN=C2c1ccccc1` (stereo not shown) [Compound 30, 8-methoxy-1-methyl-2-picolinoylaminomethyl-5-phenyl-1H-2,3-dihydro-1,4-benzodiazepine], the ED50 in test [1] was over 32 mg/kg; in test [2], 7 mg/kg.
For `COc1ccc2c(c1)N(C)C(CNC(=O)c1ccc(C)o1)CN=C2c1ccccc1` (stereo not shown) [Compound 31, 8-methoxy-1-methyl-2-[(5-methylfurane-2-carbonyl)-aminomethyl]-5-phenyl-1H-2,3-dihydro-1,4-benzodiazepine], the ED50 worked out at 30 mg/kg in test [1] and 4.4 mg/kg in test [2].
Turning to `Cc1ccc(C(=O)NCC2CN=C(c3ccccc3)c3cc4c(cc3N2C)OCO4)s1` (stereo not shown) [Compound 32, 7,8-methylenedioxy-1-methyl-2-[(5-methylthiophene-2-carbonyl)-aminomethyl]-5-phenyl-1H-2,3-dihydro-1,4-benzodiazepine], the ED50 in test [1] was under 18 mg/kg; in test [2], 5.6 mg/kg.
For `COc1ccc2c(c1)N(C)C(CNC(=O)c1cccn1C)CN=C2c1ccccc1` (stereo not shown) [Compound 33, 8-methoxy-1-methl-2-[(1-methylpyrrol-2-carbonyl)-aminomethyl]-5-phenyl-1H-2.3-dihydro-1,4-benzodiazepine] the same measures were under 18 mg/kg and 1 mg/kg.
For `COc1ccc2c(c1)N(C)C(CNC(=O)c1ccoc1)CN=C2c1ccc(F)cc1` (stereo not shown) [Compound 34, 8-methoxy-1-methyl-2-[(furane-3-carbonyl)-aminomethyl]-5-(4-fluorophenyl)-1H-2,3-dihydro-1,4-benzodiazepine] the same measures were 5.6 mg/kg and 2.1 mg/kg.
The matching figures for `COc1ccc2c(c1)N(C)C(CNC(=O)c1ccoc1)CN=C2c1ccccc1C(F)(F)F` (stereo not shown) [Compound 35, 8-methoxy-1-methyl-2-[(furane-3-carbonyl)-aminomethyl]-5-(2-trifluoromethylphenyl)-1H-2,3-dihydro-1,4-benzodiazepine]: under 18 mg/kg and 1 mg/kg.
Consider `CN1c2ccccc2C(c2ccccc2)=NCC1CNC(=O)c1cccn1C` (stereo not shown) [Compound 36, 1-methyl-2-[(1-methylpyrrol-2-carbonyl)-aminomethyl]-5-phenyl-1H-2,3-dihydro-1,4-benzodiazepine], for which the ED50 was over 18 mg/kg in test [1] and 2.1 mg/kg in test [2].
On to `CN1c2cc(Cl)ccc2C(c2ccccc2)=NCC1CNC(=O)c1ccoc1` (stereo not shown) [Compound 37, 8-chloro-1-methyl-2-[(furane-3-carbonyl)-aminomethyl]-5-phenyl-1H-2,3-dihydro-1,4-benzodiazepine], for which the ED50 in test [1] was over 18 mg/kg; in test [2], 1.2 mg/kg.
`CN1c2cc(F)ccc2C(c2ccccc2)=NCC1CNC(=O)c1ccoc1` (stereo not shown) [Compound 38, 8-fluoro-1-methyl-2-[(furane-3-carbonyl)-amino-methyl]-5-phenyl-1H-2,3-dihydro-1,4-benzodiazepine]: the ED50 in test [1] is under 18 mg/kg; in test [2] it was 0.32 mg/kg.
For `COc1ccc2c(c1)N(C)C(CNC(=O)c1ccoc1)CN=C2c1ccccc1F` (stereo not shown) [Compound 39, 8-methoxy-1-methyl-2-[(furane-3-carbonyl)-amino-methyl]-5-(2-fluorophenyl)-1H-2,3-dihydro-1,4-benzodiazepine] the same measures were under 10 mg/kg and 0.7 mg/kg.
The matching figures for `COc1ccc2c(c1)N(C)C(CNC(=O)c1cccs1)CN=C2c1ccccc1F` (stereo not shown) [Compound 40, 8-methoxy-1-methyl-2-[(thiophene-2-carbonyl)-aminomethyl]-5-(2-fluorophenyl)-1H-2,3-dihydro-1,4-benzodiazepine]: under 18 mg/kg and 1.2 mg/kg.
In the case of `CN1c2cc3c(cc2C(c2ccccc2)=NCC1CNC(=O)c1ccsc1)OCO3` (stereo not shown) [Compound 41, 7,8-methylenedioxy-1-methyl-2-[(thiophene-3-carbonyl)-aminomethyl]-5-phenyl-1H-2,3-dihydro-1,4-benzodiazepine], the ED50 in test [1] turned out to be 5.6 mg/kg; in test [2], 2.1 mg/kg.
On to `COc1ccc2c(c1)N(C)C(CNC(=O)c1ccoc1)CN=C2c1cccc(F)c1` (stereo not shown) [Compound 42, 8-methoxy-1-methyl-2-[(furane-3-carbonyl)-aminomethyl]-5-(3-fluorophenyl)-1H-2,3-dihydro-1,4-benzodiazepine], for which the ED50 in test [1] was under 18 mg/kg; in test [2], 5.6 mg/kg.
`Cc1ccc(C(=O)NCC2CN=C(c3ccccc3)c3ccc(F)cc3N2C)s1` (stereo not shown) [Compound 43, 8-fluoro-1-methyl-2-[(5-methylthiophene-2-carbonyl)-aminomethyl]-5-phenyl-1H-2,3-dihydro-1,4-benzodiazepine]: the values for the 50% effective dose (ED50) in test [1] and in test [2] were under 18 mg/kg and 5.6 mg/kg, respectively.
For the compound `CN1c2cc3c(cc2C(c2ccccc2)=NCC1CNC(=O)c1ccoc1)OCCO3` (stereo not shown) [Compound 44, 7,8-ethylenedioxy-1-methyl-2-[(furane-3-carbonyl)-aminomethyl]-5-phenyl-1H-2,3-dihydro-1,4-benzodiazepine], the ED50 was under 18 mg/kg in test [1] and over 5.6 mg/kg in test [2].
The matching figures for `Cc1ccc2c(c1)C(c1ccccc1F)=NCC(CNC(=O)c1ccoc1)N2C` (stereo not shown) [Compound 45, 1,7-dimethyl-2-[(furane-3-carbonyl)-aminomethyl]-5-(2-fluorophenyl)-1H-2,3-dihydro-1,4-benzodiazepine]: under 18 mg/kg and 3.8 mg/kg.
For `COc1ccc2c(c1)N(C)C(CNC(=O)c1ccc(Br)s1)CN=C2c1ccccc1F` (stereo not shown) [Compound 46, 8-methoxy-1-methyl-2-[(5-bromothiophene-2-carbonyl)-aminomethyl]-5-(2-fluorophenyl)-1H-2,3-dihydro-1,4-benzodiazepine] the same measures were under 18 mg/kg and 5.6 mg/kg.
In the case of `COc1ccc2c(c1)N(C)C(CNC(=O)c1cccs1)CN=C2c1ccc(F)cc1` (stereo not shown) [Compound 47], the ED50 was under 18 mg/kg in test [1] and 3.2 mg/kg in test [2].
